Results as given in patent US12662530B2, “Anti-ADM-antibodies binding to the free N-terminus for accelerated transition of ADM-Gly to bio-ADM in patients with ADM-Gly/ bio-ADM ratio above a threshold and combination with vitamin C” (SphingoTec GmbH, priority 2020, dated 2026).

What was measured:
[1] = tested on: recombinant human PAM; test: Formation of bio-ADM from ADM-Gly by recombinant human PAM; type: biochemical
Description: The formation of bio-ADM from c-terminally glycinated 1-53 Adrenomedullin (ADM-Gly) by recombinant human PAM and the influence of the N-terminal anti-Adrenomedullin antibodies on the bio-ADM formation from ADM-Gly by PAM was investigated.
In a first step, 200 μl per well ADM-Gly (50 ng/mL) dissolved in buffer (300 mM potassium-phosphate, 100 mM NaCl, 10 mM Na-EDTA, 5 g/L BSA, pH 7.0) was added to microtiter plate wells that were precoated with an anti-MR-ADM antibody, and were incubated for 1 h at 22° C. under agitation (600 rpm). Unbound material was removed by washing. In a second step, varying concentrations (0-100 μg/mL) of either N-terminal- (HAM8101), C-terminal anti-Adrenomedullin antibody specifically blocking the glycinated C-terminus of ADM-Gly or an unspecific antibody (control antibody) was added to the wells (200 μl per well) for 1 h at 22° C. under agitation (600 rpm). The respective antibodies were diluted in buffer as described above. Unbound antibodies were removed by washing. […] After a final washing step, the remaining chemiluminescence was measured for 1 s per well with a Centro LB 960 microtiter plate luminescence reader (Berthold Technologies). To evaluate the velocity of the enzyme PAM, the signal for bio-ADM measured at t=0 minutes was subtracted from the signal for bio-ADM at t=40 minutes for each antibody concentration. […]

[2] = tested on: human native PAM; test: Native human PAM activity in human serum with NT- and MR-anti-ADM antibodies; type: biochemical; settings: antibody 100 μg/mL; FIG. 9
Description: Human serum was used as source of human native PAM. Each sample (20 μl) was diluted two-fold in 100 mM Tris-HCl in duplicate. The amidation reaction was initiated by addition of 160 μl of NT-ADM antibodies (HAM8101, AK1373, AK1388, AK1398 or AK1434) or MR-ADM antibodies (ADM43, ADM38, ADM41, ADM2901, ADM2902 and ADM2903) containing PAM-reaction buffer (100 mM Tris-HCl, pH 7.5, 6.25 μM CuSO4, 2.5 mM Ascorbate, 125 μg/mL Catalase, 62.5 μM Amastatin, 250 μM Leupeptin, and 36 ng/mL synthetic 1-53 Adrenomedullin-Gly as substrate). The final antibody concentrations were 100 μg/mL, respectively. Afterwards, 100 μl of each individual reaction of duplicated samples were combined and transferred into 20 μl of 200 mM EDTA to terminate the amidation reaction and thus to generate a t=0 minutes reaction time-point followed by incubation at 37° C. for 40 minutes. Afterwards the non-terminated reactions were stopped with 10 μl of 200 mM EDTA. To determine the PAM activity in NT-ADM antibody containing samples, bio-ADM was quantified in each reaction using the Sphingotest® bio-ADM immunoassay (Weber et al. 2017, supra). The MR-ADM antibody containing reaction was transferred to an alternative bio-ADM assay (description below). A control reaction without antibodies was measured in both bio-ADM assays. For each sample the difference between t=40 min and t=0 min bio-ADM concentration was calculated. […]

[3] = tested on: human native PAM; test: bio-ADM maturation activity (AMA) in samples of healthy subjects before and after administration; type: in vivo
Description: Human serum was used as source of human native PAM. Each sample (20 μl) was diluted two-fold in 100 mM Tris-HCl in duplicate. The amidation reaction was initiated by addition of 160 μl of NT-ADM antibodies (HAM8101, AK1373, AK1388, AK1398 or AK1434) or MR-ADM antibodies (ADM43, ADM38, ADM41, ADM2901, ADM2902 and ADM2903) containing PAM-reaction buffer (100 mM Tris-HCl, pH 7.5, 6.25 μM CuSO4, 2.5 mM Ascorbate, 125 μg/mL Catalase, 62.5 μM Amastatin, 250 μM Leupeptin, and 36 ng/mL synthetic 1-53 Adrenomedullin-Gly as substrate). The final antibody concentrations were 100 μg/mL, respectively. Afterwards, 100 μl of each individual reaction of duplicated samples were combined and transferred into 20 μl of 200 mM EDTA to terminate the amidation reaction and thus to generate a t=0 minutes reaction time-point followed by incubation at 37° C. for 40 minutes. Afterwards the non-terminated reactions were stopped with 10 μl of 200 mM EDTA. To determine the PAM activity in NT-ADM antibody containing samples, bio-ADM was quantified in each reaction using the Sphingotest® bio-ADM immunoassay (Weber et al. 2017, supra). The MR-ADM antibody containing reaction was transferred to an alternative bio-ADM assay (description below). A control reaction without antibodies was measured in both bio-ADM assays. For each sample the difference between t=40 min and t=0 min bio-ADM concentration was calculated. PAM activity is described as ng bio-ADM formed per hour and L of sample and was normalized to the reaction without antibody addition, which was set as 100%.
The formation of bio-ADM from ADM-Gly by recombinant human PAM enzyme and the invivo influence of the N-terminal anti-Adrenomedullin antibody HAM8101 using samples from healthy subjects that received HAM8101 was investigated by measuring the bio-ADM maturation activity (AMA).
Samples from n=3 subjects from each administration group before and 1 hour after administration of HAM8101 were used. Activity was determined as described for Serum samples in example 5b). The assay was calibrated using recombinant human PAM of known activity (InVivo Biotech Services GmbH, Hennigsdorf). Calibrators, controls and samples were treated in the same manner. The produced bio-ADM in the reaction-samples was quantified using the Sphingotest® bio-ADM assay (Weber et al., 2017). For each sample the difference of the t=40 min and t=0 min signal (RLUs, relative light units) was calculated and the signal (RLU(t40−t0 min)) of the calibrator was used to determine the AMA in tested serum samples. AMA is expressed as ng bio-ADM formed per hour and Liter of sample (ng/[h*L]).

[4] = tested on: MR-proADM/bio-ADM ratio; test: MR-proADM/bio-ADM ratio in samples of healthy subjects after administration; type: in vivo, human; settings: Table 5, n 18
Description: Critically ill subjects were from the AdrenOSS-I cohort described in example 7. Healthy and healthy HAM8101 treated subjects were from the study cohort described in example 6 (Geven et al. 2017. Intensive Care Med Exp 5 (Suppl 2): 0427). Bio-ADM was determined as described by Weber et al., 2017. ADM-Gly was determined as described in example 4.
The same patients as described in example 8 were also analysed for their MR-proADM/ADM-NH2 ratio.

HAM8101: humanized N-terminal anti-ADM antibody, heavy chain SEQ ID No. 35, light chain SEQ ID No. 36
PAM activity compared to the reaction without antibody addition (set at 100%) ([1]; 10 μg/mL antibody, 40 minutes, 37° C., 2 mM L-Ascorbate): 233%
influence on conversion of ADM-Gly to bio-ADM by PAM ([1]; antibody 0-100 μg/mL, FIG. 7): significant accelerating effect
influence on amidating activity compared within the tested antibodies of the same region [2]: showed the strongest influence
AMA increased by ([3]; group 1 (0.5 mg/kg), after 1 hour): approximately 60%
AMA increased by ([3]; group 1 (0.5 mg/kg), after 4 hours): ~40%
AMA increased by ([3]; group 1 (0.5 mg/kg), after 24 hours): ~52%
AMA increased by ([3]; group 2 (2 mg/kg), after 1 hour): approximately 27%
AMA increased by ([3]; group 2 (2 mg/kg), after 4 hours): ~25%
AMA increased by ([3]; group 2 (2 mg/kg), after 24 hours): ~40%
AMA increased by ([3]; group 3 (8 mg/kg), after 1 hour): approximately 65%
AMA increased by ([3]; group 3 (8 mg/kg), after 4 hours): ~48%
AMA increased by ([3]; group 3 (8 mg/kg), after 24 hours): approximately 60%
MR-proADM/bio-ADM ratio ([4]; Healthy HAM8101 treated (1 h)): 44.6
MR-proADM/bio-ADM ratio ([4]; Healthy HAM8101 treated (4 h)): 42.4
